Experimental data taken from patent US20240368109A1, “ALLOSTERIC MODULATORS OF NICOTINIC ACETYLCHOLINE RECEPTORS” (MERCK SHARP & DOHME LLC, priority 2021, published 2024).
pEC50: −log10 of the molar value.

Target: human α7 nAChR (Homo sapiens (Human), UniProt P36544)
Assay: Automated patch-clamp electrophysiology functional assay (Assay A)
Assay type: cell-based
Conditions: IonFlux HT whole-cell population patch, HEK cells expressing human α7/RIC-3, 40 μM acetylcholine
Method: The α7 nAChR positive allosteric modulator (PAM) activity of the present compounds may be tested using assays known in the art. The α7 nAChR PAMs described herein have activities in an automated patch-clamp electrophysiology functional assay as described in the examples. The assay was performed using the IonFlux HT in a whole-cell, population patch configuration. See Golden et al. Assay Drug Dev. Technol. (2011) 9:608-619. The compounds were assessed for their ability to modulate the function of the human α7 nAChR stably expressed in a HEK cell line both in the presence, and in the absence of the natural α7 agonist acetylcholine. By performing a series of such measurements at different concentrations, the effective concentration of the α7 nAChR PAMs (EC50) was determined. See Spencer et al. Assay Drug Dev. Technol. (2012) 10:313-324.
Direct activation of α7 (agonism), and potentiation of acetylcholine-evoked α7 currents was determined as follows:
Automated Patch-Clamp Electrophysiology Functional Assay (Assay A)
Automated patch-clamp electrophysiology was performed using the IonFluxHT (Fluxion Biosciences Inc., San Francisco, CA) in the whole-cell, population patch configuration. Test compounds were assessed for their ability to modulate the function of the α7 nicotinic acetylcholine receptor both in the presence, and in the absence of the natural α7 agonist acetylcholine. A HEK cell line stably expressing both human RIC-3 and human α7 (PrecisION hnAChR α7/RIC-3, Eurofins Pharma, St. Charles, MO) was cultured in 175 cm^2 triple-layer tissue culture flasks to no more than 90% confluency in DMEM/F-12 growth media supplemented with 10% heat-inactivated fetal bovine serum, 1% non-essential amino acids, 0.625 μg/mL Puromycin, and 400 μg/mL Geneticin. Immediately prior to assay, cells were detached by first aspirating growth media, rinsing with Dulbecco's phosphate buffered saline, and then adding 10 mL of Accutase (Innovative Cell Technologies, San Diego, CA) to the flask and then incubating at 37° C. for 5 minutes. Detached cells were then recovered by the addition of 40 mL of CHO-serum-free media supplemented with 25 mM HEPES, and rocked gently in a 50 mL conical tube for 20 minutes prior to patch-clamp assay. After recovery, cells were pelleted by centrifugation at 1,000 RPM for 1 minute in a compact bench top centrifuge; recovery media was aspirated and cells were resuspended in external recording solution (150 mM NaCl, 5 mM KCl, 2 mM CaCl2), 1 mM MgCl2, 10 mM HEPES, 12 mM dextrose) to a density of 5.0×10^6 cells/mL. The cell suspension was added to the cell inlet wells on an IonFlux HT population patch plate which had previously been rinsed and primed with deionized H2O. Test compounds were serially diluted in DMSO and then resuspended to the final test concentration in external recording solution, with, or without 40 μM acetylcholine added to the external recording solution; test compounds were then transferred to the IonFlux HT population patch plate. Internal recording solution (110 mM TrisPO4, 28 mM TrisBase, 0.1 mM CaCl2), 2 mM MgCl2, 11 mM EGTA, 4 mM MgATP) was added to the internal recording solution inlet wells on the IonFlux HT patch plate previously loaded with cells and test compounds, and the plate loaded into the IonFlux HT instrument. A protocol was executed on the IonFlux HT to trap the cells, break into the cells, and establish the whole-cell recording configuration; cells were voltage-clamped at a holding potential of −60 mV for the duration of the experiment, all experiments were conducted at room temperature, and the IonFlux HT injection pressure was 8 psi for solution applications. Upon establishing the whole-cell configuration, external recording solution was perfused into the recording chambers for 120 seconds and then 40 μM acetylcholine was applied for 1 second and immediately washed off with external recording solution for 60 seconds. […]

Sequence of human α7 nAChR (P36544 23-502): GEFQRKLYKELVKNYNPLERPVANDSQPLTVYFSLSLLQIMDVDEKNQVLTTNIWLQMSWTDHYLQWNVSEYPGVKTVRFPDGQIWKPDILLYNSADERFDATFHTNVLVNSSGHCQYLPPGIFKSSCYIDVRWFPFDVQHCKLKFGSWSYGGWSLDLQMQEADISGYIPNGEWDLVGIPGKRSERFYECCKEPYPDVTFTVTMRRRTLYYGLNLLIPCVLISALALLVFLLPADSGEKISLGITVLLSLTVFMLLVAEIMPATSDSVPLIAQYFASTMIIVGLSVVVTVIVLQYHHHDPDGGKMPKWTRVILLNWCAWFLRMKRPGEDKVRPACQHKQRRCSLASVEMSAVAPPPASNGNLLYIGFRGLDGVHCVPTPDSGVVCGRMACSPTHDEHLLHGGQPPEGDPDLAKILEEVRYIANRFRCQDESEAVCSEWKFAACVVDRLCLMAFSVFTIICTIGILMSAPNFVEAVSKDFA

pEC50 (potency class) | pEC50 (electrophysiology EC50 values) | Compound
4.30 to 5.30 |  | COc1ccc(-c2cc(CNC(=O)C3C4Oc5ccc(F)cc5C43)on2)cc1 (stereo not drawn) [Example C44, exo-5-fluoro-N-{[3-(4-methoxyphenyl)-1,2-oxazol-5-yl]methyl}-1a,6b-dihydro-1H-cyclopropa[b][1]benzofuran-1-carboxamide]
4.30 to 5.30 |  | COc1cc2c(cc1OC)[C@@H](NC(=O)C1C3Oc4ccc(F)cc4C31)COC2 (stereo partly drawn) [Example C4, exo-N-[(4R)-6,7-dimethoxy-3,4-dihydro-1H-2-benzopyran-4-yl]-5-fluoro-1a,6b-dihydro-11H-cyclopropa[b][1]benzofuran-1-carboxamide]
5.30 to 6.30 | 5.96 | COc1cccc(OC)c1CNC(=O)C1C2COc3ccccc3C21 (stereo not drawn) [Example A17, exo-N-[(2,6-dimethoxyphenyl)methyl]-1,1a,2,7b-tetrahydrocyclopropa[c][1]benzopyran-1-carboxamide]
5.30 to 6.30 | 5.64 | CC(NC(=O)C1C2Oc3ccc(F)cc3C21)c1cc2ccccc2o1 (stereo not drawn) [Example C20, exo-N-[1-(1-benzofuran-2-yl)ethyl]-5-fluoro-1a,6b-dihydro-1H-cyclopropa[b][1]benzofuran-1-carboxamide]
5.30 to 6.30 | 6.00 | COc1ccc(-c2noc(CNC(=O)C3C4Oc5ccc(F)cc5C43)n2)cn1 (stereo not drawn) [Example C51, exo-5-fluoro-N-{[3-(6-methoxypyridin-3-yl)-1,2,4-oxadiazol-5-yl]methyl}-1a,6b-dihydro-1H-cyclopropa[b][1]benzofuran-1-carboxamide]
5.30 to 6.30 |  | O=C(NCc1nc(Br)no1)C1C2Oc3ccc(F)cc3C21 (stereo not drawn) [Example C41, exo-N-[(3-bromo-1,2,4-oxadiazol-5-yl)methyl]-5-fluoro-1a,6b-dihydro-1H-cyclopropa[b][1]benzofuran-1-carboxamide]
6.30 to 7.00 | 6.32 | O=C(NCc1nnc(-c2ccccc2)o1)C1C2Oc3ccc(F)cc3C21 (stereo not drawn) [Example C50, exo-5-fluoro-N-[(5-phenyl-1,3,4-oxadiazol-2-yl)methyl]-1a,6b-dihydro-1H-cyclopropa[b][1]benzofuran-1-carboxamide]
5.30 to 6.30 | 5.92 | CC(NC(=O)C1C2Oc3ccc(F)cc3C21)c1cccs1 (stereo not drawn) [Example C12, exo-5-fluoro-N-[1-(thiophen-2-yl)ethyl]-1a,6b-dihydro-1H-cyclopropa[b][1]benzofuran-1-carboxamide]
5.30 to 6.30 | 5.46 | COC(=O)[C@@H](NC(=O)C1C2Oc3ccc(F)cc3C21)c1cccc(F)c1 (mixture of isomers) [Example C13, methyl 2-(3-fluorophenyl)-2-[(exo-5-fluoro-1a,6b-dihydro-1H-cyclopropa[b][1]benzofuran-1-carbonyl)amino]acetate]
5.30 to 6.30 | 6.09 | O=C(NCc1cc(Cl)ccc1F)C1C2Oc3ccc(F)cc3C21 (stereo not drawn) [Example C14, exo-N-[(5-chloro-2-fluorophenyl)methyl]-5-fluoro-1a,6b-dihydro-1H-cyclopropa[b][1]benzofuran-1-carboxamide]

Compound | pEC50 (potency class) | pEC50 (electrophysiology EC50 values)
CCC(NC(=O)C1C2Oc3ccc(F)cc3C21)c1ccccn1 (stereo not drawn) [Example C16, 2-{1-[(exo-5-fluoro-1a,6b-dihydro-1H-cyclopropa[b][1]benzofuran-1-carbonyl)amino]propyl}pyridine] | 5.30 to 6.30 | 
O=C(NCc1cccc(-c2ncco2)c1)C1C2Oc3ccc(F)cc3C21 (stereo not drawn) [Example C35, exo-5-fluoro-N-{[3-(1,3-oxazol-2-yl)phenyl]methyl}-1a,6b-dihydro-1H-cyclopropa[b][1]benzofuran-1-carboxamide] | 5.30 to 6.30 | 5.62
O=C(NCc1n[nH]c2c1CCCCC2)[C@H]1[C@@H]2Oc3ccc(F)cc3[C@@H]21 [Example C33, 3-{[(exo-5-fluoro-1a,6b-dihydro-1H-cyclopropa[b][1]benzofuran-1-carbonyl)amino]methyl}-1,4,5,6,7,8-hexahydrocyclohepta[c]pyrazole] | 5.30 to 6.30 | 
